Where a SMILES comes first, the peptide text is derived from it. [ ]: non-standard residue; d: D form. The star is where a group is joined. Palmitoyl = CCCCCCCCCCCCCCCC(=O)*
Target: T1, APJ receptor (Homo sapiens, UniProt P35414)
T1 construct: expressed in transfected cells; host or cells: Human TRex cells (doxycycline-inducible)
T1 sequence (P35414 1-380): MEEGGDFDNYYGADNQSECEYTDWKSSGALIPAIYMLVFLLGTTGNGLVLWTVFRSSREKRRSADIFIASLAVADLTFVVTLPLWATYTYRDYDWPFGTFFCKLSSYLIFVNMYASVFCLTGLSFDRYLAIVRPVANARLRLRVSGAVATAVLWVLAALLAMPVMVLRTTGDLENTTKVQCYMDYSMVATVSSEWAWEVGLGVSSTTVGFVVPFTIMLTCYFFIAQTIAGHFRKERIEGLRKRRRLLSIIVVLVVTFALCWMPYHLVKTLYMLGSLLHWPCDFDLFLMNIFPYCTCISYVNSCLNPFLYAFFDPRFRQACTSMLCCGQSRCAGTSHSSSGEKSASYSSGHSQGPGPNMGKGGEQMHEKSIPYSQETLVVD
Experiment: HTRF cAMP assay, inhibition of NKH477 stimulated cAMP in Human TRex cells expressing APJ upon doxycycline induction (APJ-hTREX)
Type: cell-based
Conditions: read-out: % IA (@ 300 nM)
Description: HTRF (homogeneous time resolved fluorescence) is a technology developed by Cisbio Bioassays based on TR-FRET (time-resolved fluorescence resonance energy transfer). Cisbio Bioassays has developed a wide selection of HTRF-based assays compatible with whole cells, thereby enabling functional assays to run under more physiological conditions. The IP-One assays are competitive immunoassays using cryptate-labeled anti-IP1 monoclonal antibody and d2-labeled IP1. IP1 is a relatively stable downstream metabolite of IP3, and accumulates in cells following Gq receptor activation.
cAMP kits based on a competitive immunoassay using cryptate-labeled anti-cAMP antibody and d2-labeled cAMP were used to assay the effects of APJ compounds of the present invention. […] Cells are treated with […] doxycycline and seeded in all white 96 well plates @ 40 k/well overnight.

percent intrinsic activity at 0.3 µM	Structure (SMILES)
63%	CCCCCCCCCCCCCCCC(=O)N[C@H](C(=O)N[C@@H](Cc1c[nH]cn1)C(=O)N[C@@H](Cc1ccccc1)C(=O)N[C@@H](CCCNC(=N)N)C(=O)N[C@@H](CO)C(=O)N[C@@H](CO)C(=O)N[C@@H](CCC(=O)O)C(=O)N[C@H](CCCCN)C(=O)N[C@@H](CCCNC(=N)N)C(=O)N[C@@H](CCCNC(=N)N)C(=O)N[C@@H](CO)C(=O)N[C@@H](C)C(=O)N[C@@H](CC(=O)O)C(=O)N[C@H](C(=O)N[C@@H](Cc1ccccc1)C(=O)N[C@H](C(N)=O)[C@@H](C)CC)[C@@H](C)CC)[C@@H](C)O [Compound 8] (Palmitoyl-THFRSSE[dK]RRSADIFI-NH2)
73%	CCCCCCCCCCCCCCCC(=O)N[C@H](C(=O)N[C@H](C(=O)N[C@@H](Cc1ccccc1)C(=O)N[C@@H](CCCNC(=N)N)C(=O)N[C@@H](CO)C(=O)N[C@@H](CO)C(=O)N[C@@H](Cc1c[nH]cn1)C(=O)N[C@H](CCCCN)C(=O)N[C@@H](CCCNC(=N)N)C(=O)N[C@@H](CCCNC(=N)N)C(=O)N[C@@H](CO)C(=O)N[C@@H](C)C(=O)N[C@@H](CC(=O)O)C(=O)N[C@H](C(=O)N[C@@H](Cc1ccccc1)C(=O)N[C@H](C(N)=O)[C@@H](C)CC)[C@@H](C)CC)C(C)C)[C@@H](C)O [Compound 12] (Palmitoyl-TVFRSSH[dK]RRSADIFI-NH2)
59%	CCCCCCCCCCCCCCCC(=O)N[C@H](C(=O)N[C@H](C(=O)N[C@@H](Cc1ccccc1)C(=O)N[C@@H](CCC(N)=O)C(=O)N[C@@H](CO)C(=O)N[C@@H](CO)C(=O)N[C@@H](CCC(=O)O)C(=O)N[C@H](CCCCN)C(=O)N[C@@H](CCCNC(=N)N)C(=O)N[C@@H](CCCNC(=N)N)C(=O)N[C@@H](CO)C(=O)N[C@@H](C)C(=O)N[C@@H](CC(=O)O)C(=O)N[C@H](C(=O)N[C@@H](Cc1ccccc1)C(=O)N[C@H](C(N)=O)[C@@H](C)CC)[C@@H](C)CC)C(C)C)[C@@H](C)O [Compound 22] (Palmitoyl-TVFQSSE[dK]RRSADIFI-NH2)
55%	CCCCCCCCCCCCCCCC(=O)N[C@H](C(=O)N[C@H](C(=O)N[C@@H](Cc1ccccc1)C(=O)N[C@@H](CCCNC(=N)N)C(=O)N[C@@H](CCC(N)=O)C(=O)N[C@@H](CO)C(=O)N[C@@H](CCC(=O)O)C(=O)N[C@H](CCCCN)C(=O)N[C@@H](CCCNC(=N)N)C(=O)N[C@@H](CCCNC(=N)N)C(=O)N[C@@H](CO)C(=O)N[C@@H](C)C(=O)N[C@@H](CC(=O)O)C(=O)N[C@H](C(=O)N[C@@H](Cc1ccccc1)C(=O)N[C@H](C(N)=O)[C@@H](C)CC)[C@@H](C)CC)C(C)C)[C@@H](C)O [Compound 23] (Palmitoyl-TVFRQSE[dK]RRSADIFI-NH2)
45%	CCCCCCCCCCCCCCCC(=O)N[C@H](C(=O)N[C@H](C(=O)N[C@@H](Cc1ccccc1)C(=O)N[C@@H](CCCNC(=N)N)C(=O)N[C@@H](CO)C(=O)N[C@@H](CO)C(=O)N[C@@H](CCC(N)=O)C(=O)N[C@H](CCCCN)C(=O)N[C@@H](CCCNC(=N)N)C(=O)N[C@@H](CCCNC(=N)N)C(=O)N[C@@H](CO)C(=O)N[C@@H](C)C(=O)N[C@@H](CC(=O)O)C(=O)N[C@H](C(=O)N[C@@H](Cc1ccccc1)C(=O)N[C@H](C(N)=O)[C@@H](C)CC)[C@@H](C)CC)C(C)C)[C@@H](C)O [Compound 25] (Palmitoyl-TVFRSSQ[dK]RRSADIFI-NH2)
44%	CCCCCCCCCCCCCCCC(=O)N[C@H](C(=O)N[C@@H](CC(=O)O)C(=O)N[C@@H](Cc1ccccc1)C(=O)N[C@@H](CCCNC(=N)N)C(=O)N[C@@H](CO)C(=O)N[C@@H](CO)C(=O)N[C@@H](CCC(=O)O)C(=O)N[C@H](CCCCN)C(=O)N[C@@H](CCCNC(=N)N)C(=O)N[C@@H](CCCNC(=N)N)C(=O)N[C@@H](CO)C(=O)N[C@@H](C)C(=O)N[C@@H](CC(=O)O)C(=O)N[C@H](C(=O)N[C@@H](Cc1ccccc1)C(=O)N[C@H](C(N)=O)[C@@H](C)CC)[C@@H](C)CC)[C@@H](C)O [Compound 34] (Palmitoyl-TDFRSSE[dK]RRSADIFI-NH2)
49%	CCCCCCCCCCCCCCCC(=O)N[C@H](C(=O)N[C@H](C(=O)N[C@@H](Cc1ccccc1)C(=O)N[C@@H](CCCNC(=N)N)C(=O)N[C@@H](CC(=O)O)C(=O)N[C@@H](CO)C(=O)N[C@@H](CCC(=O)O)C(=O)N[C@H](CCCCN)C(=O)N[C@@H](CCCNC(=N)N)C(=O)N[C@@H](CCCNC(=N)N)C(=O)N[C@@H](CO)C(=O)N[C@@H](C)C(=O)N[C@@H](CC(=O)O)C(=O)N[C@H](C(=O)N[C@@H](Cc1ccccc1)C(=O)N[C@H](C(N)=O)[C@@H](C)CC)[C@@H](C)CC)C(C)C)[C@@H](C)O [Compound 36] (Palmitoyl-TVFRDSE[dK]RRSADIFI-NH2)
50%	CCCCCCCCCCCCCCCC(=O)N[C@H](C(=O)N[C@H](C(=O)N[C@@H](Cc1ccccc1)C(=O)N[C@@H](CCCNC(=N)N)C(=O)N[C@@H](CO)C(=O)N[C@@H](CC(=O)O)C(=O)N[C@@H](CCC(=O)O)C(=O)N[C@H](CCCCN)C(=O)N[C@@H](CCCNC(=N)N)C(=O)N[C@@H](CCCNC(=N)N)C(=O)N[C@@H](CO)C(=O)N[C@@H](C)C(=O)N[C@@H](CC(=O)O)C(=O)N[C@H](C(=O)N[C@@H](Cc1ccccc1)C(=O)N[C@H](C(N)=O)[C@@H](C)CC)[C@@H](C)CC)C(C)C)[C@@H](C)O [Compound 37] (Palmitoyl-TVFRSDE[dK]RRSADIFI-NH2)

The next lines start with the compound.

Structure (SMILES)	percent intrinsic activity at 0.3 µM
CCCCCCCCCCCCCCCC(=O)N[C@H](C(=O)N[C@@H](Cc1ccccc1)C(=O)N[C@@H](Cc1ccccc1)C(=O)N[C@@H](CCCNC(=N)N)C(=O)N[C@@H](CO)C(=O)N[C@@H](CO)C(=O)N[C@@H](CCC(=O)O)C(=O)N[C@H](CCCCN)C(=O)N[C@@H](CCCNC(=N)N)C(=O)N[C@@H](CCCNC(=N)N)C(=O)N[C@@H](CO)C(=O)N[C@@H](C)C(=O)N[C@@H](CC(=O)O)C(=O)N[C@H](C(=O)N[C@@H](Cc1ccccc1)C(=O)N[C@H](C(N)=O)[C@@H](C)CC)[C@@H](C)CC)[C@@H](C)O [Compound 2] (Palmitoyl-TFFRSSE[dK]RRSADIFI-NH2)	59%
CCCCCCCCCCCCCCCC(=O)N[C@@H](Cc1c[nH]cn1)C(=O)N[C@H](C(=O)N[C@@H](Cc1ccccc1)C(=O)N[C@@H](CCCNC(=N)N)C(=O)N[C@@H](CO)C(=O)N[C@@H](CO)C(=O)N[C@@H](CCC(=O)O)C(=O)N[C@H](CCCCN)C(=O)N[C@@H](CCCNC(=N)N)C(=O)N[C@@H](CCCNC(=N)N)C(=O)N[C@@H](CO)C(=O)N[C@@H](C)C(=O)N[C@@H](CC(=O)O)C(=O)N[C@H](C(=O)N[C@@H](Cc1ccccc1)C(=O)N[C@H](C(N)=O)[C@@H](C)CC)[C@@H](C)CC)C(C)C [Compound 7] (Palmitoyl-HVFRSSE[dK]RRSADIFI-NH2)	50%
CCCCCCCCCCCCCCCC(=O)N[C@H](C(=O)N[C@H](C(=O)N[C@@H](Cc1ccccc1)C(=O)N[C@@H](Cc1c[nH]cn1)C(=O)N[C@@H](CO)C(=O)N[C@@H](CO)C(=O)N[C@@H](CCC(=O)O)C(=O)N[C@H](CCCCN)C(=O)N[C@@H](CCCNC(=N)N)C(=O)N[C@@H](CCCNC(=N)N)C(=O)N[C@@H](CO)C(=O)N[C@@H](C)C(=O)N[C@@H](CC(=O)O)C(=O)N[C@H](C(=O)N[C@@H](Cc1ccccc1)C(=O)N[C@H](C(N)=O)[C@@H](C)CC)[C@@H](C)CC)C(C)C)[C@@H](C)O [Compound 10] (Palmitoyl-TVFHSSE[dK]RRSADIFI-NH2)	55%
CCCCCCCCCCCCCCCC(=O)N[C@H](C(=O)N[C@H](C(=O)N[C@@H](Cc1ccccc1)C(=O)N[C@@H](CCCNC(=N)N)C(=O)N[C@@H](CO)C(=O)N[C@@H](CO)C(=O)N[C@@H](CCC(=O)O)C(=O)N[C@H](CCCCN)C(=O)N[C@@H](Cc1c[nH]cn1)C(=O)N[C@@H](CCCNC(=N)N)C(=O)N[C@@H](CO)C(=O)N[C@@H](C)C(=O)N[C@@H](CC(=O)O)C(=O)N[C@H](C(=O)N[C@@H](Cc1ccccc1)C(=O)N[C@H](C(N)=O)[C@@H](C)CC)[C@@H](C)CC)C(C)C)[C@@H](C)O [Compound 13] (Palmitoyl-TVFRSSE[dK]HRSADIFI-NH2)	56%
CCCCCCCCCCCCCCCC(=O)N1CCC[C@H]1C(=O)N[C@H](C(=O)N[C@@H](Cc1ccccc1)C(=O)N[C@@H](CCCNC(=N)N)C(=O)N[C@@H](CO)C(=O)N[C@@H](CO)C(=O)N[C@@H](CCC(=O)O)C(=O)N[C@H](CCCCN)C(=O)N[C@@H](CCCNC(=N)N)C(=O)N[C@@H](CCCNC(=N)N)C(=O)N[C@@H](CO)C(=O)N[C@@H](C)C(=O)N[C@@H](CC(=O)O)C(=O)N[C@H](C(=O)N[C@@H](Cc1ccccc1)C(=O)N[C@H](C(N)=O)[C@@H](C)CC)[C@@H](C)CC)C(C)C [Compound 42] (Palmitoyl-PVFRSSE[dK]RRSADIFI-NH2)	83%
CCCCCCCCCCCCCCCC(=O)N[C@H](C(=O)N1CCC[C@H]1C(=O)N[C@@H](Cc1ccccc1)C(=O)N[C@@H](CCCNC(=N)N)C(=O)N[C@@H](CO)C(=O)N[C@@H](CO)C(=O)N[C@@H](CCC(=O)O)C(=O)N[C@H](CCCCN)C(=O)N[C@@H](CCCNC(=N)N)C(=O)N[C@@H](CCCNC(=N)N)C(=O)N[C@@H](CO)C(=O)N[C@@H](C)C(=O)N[C@@H](CC(=O)O)C(=O)N[C@H](C(=O)N[C@@H](Cc1ccccc1)C(=O)N[C@H](C(N)=O)[C@@H](C)CC)[C@@H](C)CC)[C@@H](C)O [Compound 43] (Palmitoyl-TPFRSSE[dK]RRSADIFI-NH2)	39%
